In PubChem BioAssay (NCI):
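All cell lines were grown in 96-well plates and treated with compound for 48 hours. Here, GI50 denotes the concentration required for 50% inhibition of growth. TGI marks complete inhibition of growth.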

Key:
Test in all cases: NCI anticancer screen, dose series, 48 h
NCI-H23 lung = tested on: NCI-H23 lung
MALME-3M melanoma = tested on: MALME-3M melanoma
DU-145 prostate = tested on: DU-145 prostate
ACHN renal = tested on: ACHN renal
M14 melanoma = tested on: M14 melanoma
SK-MEL-5 melanoma = tested on: SK-MEL-5 melanoma
OVCAR-3 ovarian = tested on: OVCAR-3 ovarian
NCI-H226 lung = tested on: NCI-H226 lung
CAKI-1 renal = tested on: CAKI-1 renal
HL-60(TB) leukemia = tested on: HL-60(TB) leukemia
IGROV1 ovarian = tested on: IGROV1 ovarian
PC-3 prostate = tested on: PC-3 prostate
RPMI-8226 leukemia = tested on: RPMI-8226 leukemia
HS 578T breast = tested on: HS 578T breast
NCI/ADR-RES ovarian = tested on: NCI/ADR-RES ovarian
HCT-15 colon = tested on: HCT-15 colon
OVCAR-4 ovarian = tested on: OVCAR-4 ovarian
SK-MEL-28 melanoma = tested on: SK-MEL-28 melanoma
SN12C renal = tested on: SN12C renal
MDA-MB-468 breast = tested on: MDA-MB-468 breast
SK-OV-3 ovarian = tested on: SK-OV-3 ovarian
UACC-62 melanoma = tested on: UACC-62 melanoma
OVCAR-8 ovarian = tested on: OVCAR-8 ovarian
A549 NSCLC = tested on: A549 NSCLC
RXF 393 renal = tested on: RXF 393 renal
UO-31 renal = tested on: UO-31 renal
LOX IMVI melanoma = tested on: LOX IMVI melanoma
HOP-62 NSCLC = tested on: HOP-62 NSCLC
SF-539 CNS = tested on: SF-539 CNS
BT-549 breast = tested on: BT-549 breast
MCF7 breast = tested on: MCF7 breast
MDA-MB-435 = tested on: MDA-MB-435
786-0 renal = tested on: 786-0 renal
KM12 colon = tested on: KM12 colon
TK-10 renal = tested on: TK-10 renal
OVCAR-5 ovarian = tested on: OVCAR-5 ovarian
SF-268 CNS = tested on: SF-268 CNS
HCC-2998 colon = tested on: HCC-2998 colon
SNB-19 CNS = tested on: SNB-19 CNS
SF-295 CNS = tested on: SF-295 CNS
HOP-92 NSCLC = tested on: HOP-92 NSCLC
T-47D breast = tested on: T-47D breast
EKVX NSCLC = tested on: EKVX NSCLC
HCT-116 colon = tested on: HCT-116 colon
A498 renal = tested on: A498 renal
SK-MEL-2 melanoma = tested on: SK-MEL-2 melanoma
MDA-MB-231 breast = tested on: MDA-MB-231 breast

What does the source list for COc1ccc2c(c1)c(-c1cc3nc(-c4cn(C)c5ncccc45)cc(N)n3n1)cn2C?
GI50 (NCI-H23 lung): 3.92 µM; TGI (NCI-H23 lung): 17.9 µM; GI50 (MALME-3M melanoma): 1740 nM; TGI (MALME-3M melanoma): 3.17 µM; GI50 (DU-145 prostate): 2880 nM; TGI (DU-145 prostate): 8.26 µM; GI50 (ACHN renal): 2090 nM; TGI (ACHN renal): 4.24 µM; GI50 (M14 melanoma): 1800 nM; TGI (M14 melanoma): 3.44 µM; GI50 (SK-MEL-5 melanoma): 1690 nM; TGI (SK-MEL-5 melanoma): 3.24 µM; GI50 (OVCAR-3 ovarian): 1980 nM; TGI (OVCAR-3 ovarian): 4.14 µM; GI50 (NCI-H226 lung): 2360 nM; TGI (NCI-H226 lung): 6.92 µM; GI50 (CAKI-1 renal): 2190 nM; TGI (CAKI-1 renal): 6.46 µM; GI50 (HL-60(TB) leukemia): 2170 nM; TGI (HL-60(TB) leukemia): 5.1 µM; GI50 (IGROV1 ovarian): 2060 nM; TGI (IGROV1 ovarian): 4.64 µM; GI50 (PC-3 prostate): 2750 nM; TGI (PC-3 prostate): > 100 µM; GI50 (RPMI-8226 leukemia): 2120 nM; TGI (RPMI-8226 leukemia): 5.44 µM; GI50 (HS 578T breast): 2090 nM; TGI (HS 578T breast): 6.27 µM; GI50 (NCI/ADR-RES ovarian): 3.62 µM; TGI (NCI/ADR-RES ovarian): 23.5 µM; GI50 (HCT-15 colon): 1760 nM; TGI (HCT-15 colon): 3.6 µM; GI50 (OVCAR-4 ovarian): 2130 nM; TGI (OVCAR-4 ovarian): 5 µM; GI50 (SK-MEL-28 melanoma): 1640 nM; TGI (SK-MEL-28 melanoma): 3.02 µM; GI50 (SN12C renal): 5.18 µM; TGI (SN12C renal): 18.2 µM; GI50 (MDA-MB-468 breast): 1820 nM; TGI (MDA-MB-468 breast): 3.52 µM; GI50 (SK-OV-3 ovarian): 4.65 µM; TGI (SK-OV-3 ovarian): 33 µM; GI50 (UACC-62 melanoma): 1610 nM; TGI (UACC-62 melanoma): 3.02 µM; GI50 (OVCAR-8 ovarian): 3.17 µM; TGI (OVCAR-8 ovarian): > 100 µM; GI50 (A549 NSCLC): 3.37 µM; TGI (A549 NSCLC): 13.8 µM; GI50 (RXF 393 renal): 1660 nM; TGI (RXF 393 renal): 3.21 µM; GI50 (UO-31 renal): 1850 nM; TGI (UO-31 renal): 4.57 µM; GI50 (LOX IMVI melanoma): 1790 nM; TGI (LOX IMVI melanoma): 3.31 µM; GI50 (HOP-62 NSCLC): 3.11 µM; TGI (HOP-62 NSCLC): 13.3 µM; GI50 (SF-539 CNS): 1650 nM; TGI (SF-539 CNS): 3.06 µM; GI50 (BT-549 breast): 1830 nM; TGI (BT-549 breast): 3.77 µM; GI50 (MCF7 breast): 2270 nM; TGI (MCF7 breast): 5.91 µM; GI50 (MDA-MB-435): 1720 nM; TGI (MDA-MB-435): 3.35 µM; GI50 (786-0 renal): 1740 nM; TGI (786-0 renal): 3.2 µM; GI50 (KM12 colon): 1970 nM; TGI (KM12 colon): 4.32 µM; GI50 (TK-10 renal): 4.25 µM; TGI (TK-10 renal): 14.5 µM; GI50 (OVCAR-5 ovarian): 4.76 µM; TGI (OVCAR-5 ovarian): 18 µM; GI50 (SF-268 CNS): 2640 nM; TGI (SF-268 CNS): 8.65 µM; GI50 (HCC-2998 colon): 1810 nM; TGI (HCC-2998 colon): 3.56 µM; GI50 (SNB-19 CNS): 3.98 µM; TGI (SNB-19 CNS): 16.8 µM; GI50 (SF-295 CNS): 1810 nM; TGI (SF-295 CNS): 3.49 µM; GI50 (HOP-92 NSCLC): 1610 nM; TGI (HOP-92 NSCLC): 3.82 µM; GI50 (T-47D breast): 3.24 µM; TGI (T-47D breast): 16.3 µM; GI50 (EKVX NSCLC): 3.05 µM; TGI (EKVX NSCLC): 12.5 µM; GI50 (HCT-116 colon): 1670 nM; TGI (HCT-116 colon): 3.13 µM; GI50 (A498 renal): 14.8 µM; TGI (A498 renal): 34.8 µM; GI50 (SK-MEL-2 melanoma): 2830 nM; TGI (SK-MEL-2 melanoma): 8.59 µM; GI50 (MDA-MB-231 breast): 1840 nM; TGI (MDA-MB-231 breast): 3.89 µM
